pIC50: −log10 of the molar value.
How the values were obtained:
A-172 = test: ATPlite cell IC50 screening, A-172; format: cell-based; conditions: Homo sapiens; A-172, Glioblastoma; ATPlite luminescence
Protocol: (§1) In brief, the cells were cultures in relevant medium and treated with a range of 9 doses of 2-deoxyribitol, from 10 mM, 5 mM, 2.5 mM, 1.25 mM, 0.62 mM, 0.31 mM, 0.08 mM, and 0.04 mM. Cells were diluted in the corresponding ATCC recommended medium and dispensed in a 384-well plate, depending on the cell line used, at a density of 100-6400 cells per well in 45 μl medium. For each used cell line the optimal cell density was used. The margins of the plate were filled with phosphate-buffered saline. Plated cells were incubated in a humidified atmosphere of 5% CO2 at 37° C. After 24 hours, 5 μl of compound dilution was added and plates were further incubated. At the end of experiment (t=end), 24 μl of ATPlite 1Step™ (PerkinElmer) solution was added to each well, and subsequently shaken for 2 minutes. After 10 minutes of incubation in the dark, the luminescence was recorded on an Envision multimode reader (PerkinElmer). IC50 was determined in comparison with the control samples. The cell lines tested and their corresponding disease model is indicated the left-most and middle columns, respectively. IC50 values are given in μM values in the right-most column. This screening was performed of a list of cancer cells to establish IC50 values for each of the cancer cell lines. This screening provides evidence for the potential of 2DR to treat many cancer types.

Jurkat E6.1 = test: ATPlite cell IC50 screening, Jurkat E6.1; format: cell-based; conditions: Homo sapiens; Jurkat E6.1, Childhood T acute lymphoblastic leukemia; ATPlite luminescence
Protocol: as §1

In the case of OCC[C@H](O)[C@H](O)CO [2-deoxyribitol], the pIC50 (A-172) was less than 2.00 and the pIC50 (Jurkat E6.1) was 2.33.
